Measurements published in patent US6706663B2, “Herbicidal 3-heterocyclic substituted benzisothiazole and benzisoxazole compounds” (Wyeth, priority 2000, dated 2004).

What was measured:
[1] = tested on: ECHCG (Echinochloa crus-galli); test: Postemergence herbicidal evaluation; format: in vivo, (L.) Beau
Method in brief: (§1)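 Seedlings grown about two weeks in flats, sprayed, then kept under standard greenhouse care. Rated visually 4–5 weeks after treatment on a 0–9 scale (stand, vigour, malformation, size, chlorosis, overall appearance) relative to untreated control; repeat tests averaged.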

SETVI (Setaria viridis) = test: Postemergence herbicidal evaluation; format: in vivo, (L.) Beau
Method in brief: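 Ratings use a 0-9 visual scale covering stand, vigor, malformation, size, chlorosis and appearance versus a control, scored 4-5 weeks post-spray. Roughly two-week-old seedlings received about 0.0040-1.000 kg/ha active, applied in 50/50 acetone/water with 0.5% TWEEN 20. Multiple tests per compound were averaged.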

[2] = tested on: TRZAWR (Wheat, Winter, cv Riband); test: Postemergence herbicidal evaluation; format: in vivo, Triticum aestivum
Method in brief: as §1

[3] = tested on: ABUTH (Abutilon theophrasti); test: Preemergence herbicidal evaluation; format: in vivo, Medic.; details: rated 4-5 weeks after treatment
[4] = tested on: AMBEL (Ambrosia artemisifolia); test: Preemergence herbicidal evaluation; format: in vivo, L.; details: rated 4-5 weeks after treatment
Method in brief: (§2)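 Applied before emergence as an aqueous acetone spray over seeded soil. Read-out: 0–9 visual rating covering plant stand, vigor, size, chlorosis, malformation and overall appearance compared with control, taken 4–5 weeks after spraying.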

[5] = tested on: CASOB (Cassia obtusifolia); test: Preemergence herbicidal evaluation; format: in vivo, L.; details: rated 4-5 weeks after treatment
Method in brief: as §2

[6] = tested on: CHEAL (Chenopodium album); test: Preemergence herbicidal evaluation; format: in vivo, L.; details: rated 4-5 weeks after treatment
Method in brief: as §2

[7] = tested on: IPOHE (Ipomoea hederacea); test: Preemergence herbicidal evaluation; format: in vivo, (L.) Jacq.; details: rated 4-5 weeks after treatment
[8] = tested on: GLXMAW (Soybean, Williams); test: Preemergence herbicidal evaluation; format: in vivo, Glycine max, (L.) Merr. cv Williams; details: rated 4-5 weeks after treatment
ZEAMX (Corn, Field) = test: Preemergence herbicidal evaluation; format: in vivo, Zea mays, L.; details: rated 4-5 weeks after treatment
[9] = tested on: ECHORC (Echinochloa oryzoides); test: Flooded paddy, preemergence weed control; format: in vivo, Echinochloa oryzoides (Ard.) Fritsch.; details: rated 3-4 weeks after treatment, 0-9 rating scale
Method in brief: (§3)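 Silt loam, sowing depth ≤0.5 cm; permanent flood 1.5–3 cm above soil; greenhouse culture after treatment. Readout: 0-9 visual scale (stand, vigor, malformation, size, chlorosis, appearance) vs control.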

CYPIR (Cyperus iria) = test: Flooded paddy, preemergence weed control; format: in vivo; details: rated 3-4 weeks after treatment, 0-9 rating scale
Method in brief: as §3

[10] = tested on: CYPSE (Cyperus serotinus); test: Flooded paddy, preemergence weed control; format: in vivo, Rottb.; details: rated 3-4 weeks after treatment, 0-9 rating scale
Method in brief: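 Herbicidal effect was scored visually on a 0–9 scale against an untreated control 3–4 weeks after treatment. Compounds were applied preemergence as 50/50 v/v aqueous/acetone mixtures into flood water (1.5–3 cm deep over silt loam), at roughly 0.0080 to 0.1250 kg/ha active ingredient.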

[11] = tested on: MOOVA (Monochoria vaginalis); test: Flooded paddy, preemergence weed control; format: in vivo, Presl.; details: rated 3-4 weeks after treatment, 0-9 rating scale
Method in brief: as §3

[12] = tested on: SAGPY (Sagittaria pygmaea); test: Flooded paddy, preemergence weed control; format: in vivo, L.; details: rated 3-4 weeks after treatment, 0-9 rating scale
Method in brief: as §3

ORYSAT (Rice, Tebonnet) = test: Flooded paddy, post-transplant rice tolerance; format: in vivo, Oryza sativa, (L.) Tebonnet; details: flooded paddy, post-transplant rice, rated 3-4 weeks after treatment, 0-9 rating scale
Method in brief: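 Visual 0–9 injury rating against a control, covering stand, vigor, malformation, size, chlorosis and overall appearance. Treatment was post-transplant onto flooded containers (water 1.5–3 cm deep, silt loam) holding two ten-day-old cv. Tebonnet seedlings, maintained on greenhouse benches.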

Structure (SMILES) | Postemergence herbicidal rating, ECHCG ([1]; rate 0.0320 kg/ha) | Postemergence herbicidal rating, ECHCG ([1]; rate 0.0620 kg/ha) | Postemergence herbicidal rating, SETVI (SETVI (Setaria viridis); rate 0.0320 kg/ha) | Postemergence herbicidal rating, SETVI (SETVI (Setaria viridis); rate 0.0620 kg/ha) | Postemergence herbicidal rating, TRZAWR ([2]; rate 0.0320 kg/ha) | Postemergence herbicidal rating, TRZAWR ([2]; rate 0.0620 kg/ha) | Preemergence herbicidal rating ABUTH ([3]; Rate 0.0620 kg/ha) | Preemergence herbicidal rating AMBEL ([4]; Rate 0.0620 kg/ha) | Preemergence herbicidal rating CHEAL ([6]; Rate 0.0620 kg/ha) | Preemergence herbicidal rating IPOHE ([7]; Rate 0.0620 kg/ha) | Preemergence herbicidal rating GLXMAW ([8]; Rate 0.0620 kg/ha) | Preemergence herbicidal rating ZEAMX (ZEAMX (Corn, Field); Rate 0.0620 kg/ha) | herbicidal rating, ECHORC ([9]; rate 0.0320 kg/ha) | herbicidal rating, ECHORC ([9]; rate 0.1250 kg/ha) | herbicidal rating, CYPIR (CYPIR (Cyperus iria); rate 0.0320 kg/ha) | herbicidal rating, CYPIR (CYPIR (Cyperus iria); rate 0.1250 kg/ha) | herbicidal rating, CYPSE ([10]; rate 0.0320 kg/ha) | herbicidal rating, CYPSE ([10]; rate 0.1250 kg/ha) | herbicidal rating, MOOVA ([11]; rate 0.0320 kg/ha) | herbicidal rating, MOOVA ([11]; rate 0.1250 kg/ha) | further results
C#CCOC(=O)COc1ccsc1-c1nsc2ccc(-n3c(=O)cc(C(F)(F)F)n(C)c3=O)cc12 [Compound 39, 2-propynyl [[2-[5-[3,6-dihydro-3-methyl-2,6-dioxo-4-(trifluoromethyl)-1(2H)-pyrimidinyl]-1,2-benzisothiazol-3-yl]-3-thienyl]oxy]acetate] | 0.0 | 1.0 | 0.0 | 3.0 | 1.5 | 2.0 | 1.0 | 0.0 | 5.0 | 0.0 | 0.0 | 0.0 | 0.0 | 0.0 | 5.0 | 5.0 | 0.0 | 0.0 | 9.0 | 9.0 | ABUTH preemergence herbicidal rating ([3]; Rate 0.1250 kg/ha): 1.0; ABUTH preemergence herbicidal rating ([3]; Rate 0.2500 kg/ha): 9.0; AMBEL preemergence herbicidal rating ([4]; Rate 0.1250 kg/ha): 0.0; AMBEL preemergence herbicidal rating ([4]; Rate 0.2500 kg/ha): 0.0; CASOB preemergence herbicidal rating ([5]; Rate 0.1250 kg/ha): 0.0; CASOB preemergence herbicidal rating ([5]; Rate 0.2500 kg/ha): 0.0; CHEAL preemergence herbicidal rating ([6]; Rate 0.1250 kg/ha): 9.0; CHEAL preemergence herbicidal rating ([6]; Rate 0.2500 kg/ha): 9.0; IPOHE preemergence herbicidal rating ([7]; Rate 0.1250 kg/ha): 0.0; IPOHE preemergence herbicidal rating ([7]; Rate 0.2500 kg/ha): 1.0; GLXMAW preemergence herbicidal rating ([8]; Rate 0.1250 kg/ha): 1.0; GLXMAW preemergence herbicidal rating ([8]; Rate 0.2500 kg/ha): 1.0; ZEAMX preemergence herbicidal rating (ZEAMX (Corn, Field); Rate 0.1250 kg/ha): 0.0; ZEAMX preemergence herbicidal rating (ZEAMX (Corn, Field); Rate 0.2500 kg/ha): 1.0; herbicidal rating, SAGPY ([12]; rate 0.0320 kg/ha): 0.0; herbicidal rating, SAGPY ([12]; rate 0.1250 kg/ha): 3.0; herbicidal rating, ORYSAT (rice tolerance) (ORYSAT (Rice, Tebonnet); rate 0.0320 kg/ha): 0.0; herbicidal rating, ORYSAT (rice tolerance) (ORYSAT (Rice, Tebonnet); rate 0.1250 kg/ha): 4.0
Cc1cc(C)nc(-c2nsc3ccc(-n4c(=O)cc(C(F)(F)F)n(C)c4=O)cc23)n1 [Compound 40, 3-[3-(4,6-dimethyl-2-pyrimidinyl)-1,2-benzisothiazol-5-yl]-1-methyl-6-(trifluoromethyl)uracil] | 0.0 | 1.0 | 3.0 | 9.0 | 3.5 | 4.0 | 9.0 | 3.0 | 9.0 | 2.0 | 2.0 | 4.0 | 2.0 | 6.0 | 5.0 | 6.0 | 0.0 | 0.0 | 7.0 | 9.0 | Preemergence herbicidal rating ABUTH ([3]; Rate 0.1250 kg/ha): 9.0; Preemergence herbicidal rating ABUTH ([3]; Rate 0.2500 kg/ha): 9.0; Preemergence herbicidal rating AMBEL ([4]; Rate 0.1250 kg/ha): 5.0; Preemergence herbicidal rating AMBEL ([4]; Rate 0.2500 kg/ha): 9.0; Preemergence herbicidal rating CASOB ([5]; Rate 0.0620 kg/ha): 1.0; Preemergence herbicidal rating CASOB ([5]; Rate 0.1250 kg/ha): 2.0; Preemergence herbicidal rating CASOB ([5]; Rate 0.2500 kg/ha): 5.0; Preemergence herbicidal rating CHEAL ([6]; Rate 0.1250 kg/ha): 9.0; Preemergence herbicidal rating CHEAL ([6]; Rate 0.2500 kg/ha): 9.0; Preemergence herbicidal rating IPOHE ([7]; Rate 0.1250 kg/ha): 7.0; Preemergence herbicidal rating IPOHE ([7]; Rate 0.2500 kg/ha): 9.0; Preemergence herbicidal rating GLXMAW ([8]; Rate 0.1250 kg/ha): 2.0; Preemergence herbicidal rating GLXMAW ([8]; Rate 0.2500 kg/ha): 5.0; Preemergence herbicidal rating ZEAMX (ZEAMX (Corn, Field); Rate 0.1250 kg/ha): 8.0; Preemergence herbicidal rating ZEAMX (ZEAMX (Corn, Field); Rate 0.2500 kg/ha): 9.0; herbicidal rating, SAGPY ([12]; rate 0.0320 kg/ha): 0.0; herbicidal rating, SAGPY ([12]; rate 0.1250 kg/ha): 5.0; herbicidal rating, ORYSAT (rice tolerance) (ORYSAT (Rice, Tebonnet); rate 0.0320 kg/ha): 5.0; herbicidal rating, ORYSAT (rice tolerance) (ORYSAT (Rice, Tebonnet); rate 0.1250 kg/ha): 7.0
